Measurements taken from patent publication US20220409602A1, “DOPAMINE D3 RECEPTOR LIGANDS FOR TREATMENT OF DYSKINESIA” (TEXAS BIOMEDICAL RESEARCH INSTITUTE, priority 2021, published 2022).
Entries after “also recorded” stand apart in the source; their conditions may differ. Values belong to the molecule of their own block, whether it stands above or below them.

How the values were obtained:
Type in all cases: in vivo, marmoset
Parkinsonian marmosets [1] = assay: Parkinson's Disease Rating Scale (PDRS) in dyskinetic Parkinsonian marmosets
Protocol: (§1) All the animals (n=3) have been previously treated with MPTP as described in detail. Briefly, MPTP (Sigma Aldrich) (dissolved in physiological saline) at a concentration of 2 mg/ml was subcutaneously injected (2 mg/kg B.wt) for 5 consecutive days. After a wash out period of 72 hours from last MPTP injection, the marmosets were returned to their home cages and monitored twice daily for rest of the study period.
(§2) For induction of dyskinesias, Levodopa (Sigma Aldrich) and carbidopa (Sigma Aldrich) at 1:1 were administered orally once daily for 5 days of a week. The drugs were mixed in either Ensure® pudding, cottage cheese, or marshmallows. […] Once the animals were acclimated to the drugs, the dose was increased to 20 mg/kg B.wt and continued for next 6 weeks.
The severity of symptoms in the marmosets was categorized using a validated Parkinsonian rating scale for NHP. The PDRS correlates highly with striatal dopamine concentrations detected by postmortem immunohistopathology and it is modeled on the Unified Parkinson's Disease Rating Scale (UPDRS) and the Hoehn & Yahr scale used clinically to categorize PD patients. The PDRS was performed in daylight by video recording animals for 30 minutes. The evaluation was carried out biweekly before and after MPTP injections. The videos were scored by a blinded operator using PDRS, with a maximal disability score of 57 in the following manner: 0=normal, 1=mild, 2=moderate, 3=severe; rest tremor, action tremor, tremor of the head, tremor right arm, tremor left arm, freezing, locomotion, fine motor skills right hand, fine motor skills left hand, bradykinesia right arm, bradykinesia left arm, posture, hypokinesia, balance, posture, startle response, gross motor skills right hand and gross motor skills left hand, apathy (defined as a state of indifference), vocalization, drooling or frothing, tongue/face/lips. Independently of the PDRS, rigidity was assessed by evaluating the resistance to passive joint movements and the range of motion during reaching for food. […]

[2] = tested on: Parkinsonian marmosets with levodopa-induced dyskinesia; assay: levodopa-induced dyskinesia in MPTP Parkinsonian marmosets, dyskinesia rating scale; conditions: for expression of levodopa-induced dyskinesia: oral, with levodopa 20 mg/kg, test drug 10 mg/kg where stated
Protocol: as §1, with “Briefly,” for “All the animals (n=3) have been previously treated with MPTP as described in detail. Briefly,”
as §2
The severity of dyskinesia in the marmosets was categorized using a validated dyskinesia rating scale for NHPs. Dyskinesia was analyzed from 5-minute videos of the monkeys recorded at every 30 minutes on Tuesday, Wednesday and Thursday of each week. The videos were recorded between 9:30 AM-4:30 PM. Each day the vehicle or drugs were administered at 11:30 AM. The severity of dyskinesias was scored for different segments of the animal's body on a scale from 0 to 3, with 0=absent, 1=mild, 2=moderate, 3=severe. The body segments scored were: 1. Right upper limb dyskinesias (0-3); 2. Left upper limb dyskinesias (0-3); 3. Right lower limb dyskinesias (0-3); 4. left lower limb dyskinesias (0-3); 5. Trunk dyskinesias (0-3); 6, Head/facial dyskinesias (0-3). The severity of the rating was based on the frequency and amplitude of the abnormal movements. The total score is deducted from the six sub-scores to yield a dyskinesia score of 0 to 3: with 0=absent, 1=mild, manifesting by transient abnormal involuntary movements with choreic form, flicking of arms and limbs, increased running and hopping in the cages. […] 3=severe, characterized by a sustained dyskinesia manifesting with chorea and athetosis with sinuous writhing movements of the limbs, and dystonia with sustained extension of hind limbs and knees. The animals are unable to reach and grasp for treats (Video 1).

Parkinsonian marmosets [3] = assay: motor activity recorded by actiwatch-mini during levodopa-induced dyskinesia; conditions: for motor activity / hyperactivity during peak-dose dyskinesia (actiwatch-mini): test drug 10 mg/kg with levodopa 20 mg/kg
Protocol: as §2
(§3) The diurnal and nocturnal behavior of the marmosets was monitored using the actiwatch mini (Camntech, UK) as previously described. The device is an accelerometer that measures the intensity of the test subject's omnidirectional movements in units or counts that are directly proportional to the animal's activity. The device (2 cm in diameter) was placed on a collar around the neck of the marmoset. The animals were acclimatized to the collar in short sessions of 15 min followed by gradual increments of 30 min, 1 hr, 3 hrs, 6 hrs and 12 hrs. Once acclimatized, the actiwatch mini was attached to the collar and the activity-rest data was recorded for a period of 24 hours on 3 separate days of each treatment. The actiwatches were placed on animals at 8:30 AM and the devices were preset to start recording activity data from 9:00 AM. At 11:30 AM either the vehicle or the drugs were orally administered to the animals. The following day, the actiwatch was removed after 9:00 AM and the data was transferred to a computer through an actiwatch reader using the actiwatch activity and sleep analysis-7 software (Camntech, UK). For sleep analysis, the period of sustained quiescence (marmosets sleep cycle) starting at 7:00 PM in the evening to early morning 6:30 AM (approximately 11½ hrs) was analyzed using the sleep analysis-7 software to quantify the sleep quality and wakeful periods. The duration of sleep time was corrected for individual variations in the animal's behavior to fall asleep at different time of the evening, thereby keeping the period of sleep time analyzed same for all the animals. The analyzed data was then exported to Excel® and plotted using the Graph pad prism statistical software. To determine the change in activity after the administration of drugs, actiwatch data in 10-minute bins were exported using the actiwatch activity and sleep analysis-7 software and plotted in Graph Pad Prism.

Parkinsonian marmosets [4] = assay: PD-like symptoms and object retrieval task with barrier detour; conditions: compared to control or SWR-3-73
Protocol: The PD-like symptoms evaluated included tremors, bradykinesia, and posture and general activity measured by an accelerometer device, the Actiwatch mini. In addition, motor and cognitive functions were measured using the object retrieval task with barrier detour.
The object retrieval task with a barrier detour is a reward based behavioral testing system that was previously described to evaluate motor and cognitive functions of NHP. Briefly, the task requires the test subject to retrieve a reward (marshmallow) fastened to a tray from the open side (bypassing the barrier) of a transparent box. […] All parameters measured were previously described in detail. […] The entire process was recorded using a video camera and the recordings were then analyzed and scored by a blinded experimenter. During each trial, the following responses were scored (1) ability of the animal to reach the front, left, or right side of the box, scored under the term “reach act”; (2) hand of choice for the reach, either left or right, scored under the term “hand used”; (3) the outcome of the reach, either success or failure, scored under result section.
Using the above parameters, additional variables were analyzed: 1) Motor problem: Reaching into the open side of the box but without retrieving the reward. […]

Parkinsonian marmosets [5] = assay: nocturnal activity and sleep analysis by actiwatch-mini; conditions: with levodopa 20 mg/kg
Protocol: as §2, §3

[6] = PD13R 0.1 to 10 mg/kg, SWR-3-73 and amantadine 10 mg/kg
[7] = first week of high dose levodopa/carbidopa 20 mg/kg
[8] = levodopa 20 mg/kg combined with vehicle
[9] = levodopa 20 mg/kg acute challenge

Structure (SMILES): N#Cc1cccc(N2CCN(CCCCNC(=O)c3ccc(-c4ccsc4)cc3)CC2)c1 [PD13R]
Parkinson's Disease Rating Scale (PDRS) (Parkinsonian marmosets [1]; PD13R 10 mg/kg with levodopa in dyskinetic marmosets): significantly improved the PDRS
reduction of the expression of dyskinesia in the peak-dose period ([2]; 10 mg/kg with levodopa 20 mg/kg): approximately 85%
anti-dyskinetic effects ([2]; PD13R 0.1 mg/kg with levodopa 20 mg/kg): no anti-dyskinetic effects were observed
time to reach peak-dose dyskinesia ([2]; PD13R 5 mg/kg with levodopa 20 mg/kg): 1 h
dose with optimal anti-dyskinetic outcome ([2]; dose range with levodopa 20 mg/kg): 10 mg/kg
expression of levodopa-induced dyskinesia [2]: inhibited the expression of levodopa-induced dyskinesia; also recorded: significantly suppresses the expression of levodopa-induced dyskinesia; also recorded: eliminates the expression of levodopa-induced dyskinesia; also recorded: eliminated the levodopa-induced dyskinesia; also recorded: significantly inhibited the expression of dyskinesias
hyperactivity during the peak-dose period (actograms) (Parkinsonian marmosets [3]; PD13R 0.1 to 10 mg/kg with levodopa 20 mg/kg): dose-dependent and significant reduction in the hyperactivity
motor activity / hyperactivity during peak-dose dyskinesia (actiwatch-mini) (Parkinsonian marmosets [3]): motor activity remained within the therapeutic ON-period zone without dyskinesia; also recorded: maintained the motor activity within the ON-period without dyskinesia; also recorded: kept the motor activity within the ON-period; also recorded: inhibited the increased hyperactivity
PD-like symptoms and movement coordination (Parkinsonian marmosets [4]): clear improvement in all PD-like symptoms and movement coordination

Structure (SMILES): NC12CC3CC(CC(C3)C1)C2 [amantadine]
expression of levodopa-induced dyskinesia [2]: inhibited the expression of dyskinesia; also recorded: significantly inhibited the expression of dyskinesias
motor activity / hyperactivity during peak-dose dyskinesia (actiwatch-mini) (Parkinsonian marmosets [3]): inhibited the increased hyperactivity
motor activity / hyperactivity during peak-dose dyskinesia (actiwatch-mini) (Parkinsonian marmosets [3]; listed as Amantadine): maintained the motor activity within the ON-period without dyskinesia
actual awake time during the assumed sleep period (Parkinsonian marmosets [5]): actual awake time was significantly increased
effect on sleep (overall) (Parkinsonian marmosets [5]): experienced abnormal irregular sleep and sleep disturbances
nocturnal activity (Parkinsonian marmosets [5]; [6]): clear abnormal increase in nocturnal activity; also recorded: significant increase in nocturnal activity
sleep efficiency (Parkinsonian marmosets [5]; [6]): significantly dropped; also recorded: decrease in sleep efficiency; also recorded: sleep efficiency significantly decreased

Parkinsonian symptoms (PDRS) (Parkinsonian marmosets [1]; high doses of levodopa): worsened the Parkinsonian symptoms
duration of dyskinesia after dosing ([2]; 6th week of high dose levodopa 20 mg/kg): up to 4 hours
duration of abnormal involuntary movements [2, 7]: up to 180 minutes
time after dosing at which abnormal involuntary movements became visible [2, 7]: approximately 30 minutes
duration of the peak-dose period of dyskinesias [2, 8]: 2 h
time to reach the peak-dose period of dyskinesias after dosing [2, 8]: 30 min
highest dyskinesia disability score ([2]; levodopa 20 mg/kg combined with vehicle, scale 0 to 3): 3
time to cross the dyskinesia threshold after injection (motor activity) (Parkinsonian marmosets [3]; [9]): ≤ 30 min
time to return to the ON-period without dyskinesia (Parkinsonian marmosets [3]; [9]): approximately 145 minutes
Structure (SMILES): N[C@@H](Cc1ccc(O)c(O)c1)C(=O)O [levodopa, L-3,4-dihydroxy-phenylalanine]
PDRS (Parkinsonian marmosets [1]; physiological doses of levodopa): improved the PDRS
